The values that follow come from patent US7186559B2, “Apparatus and method for electroporation of biological samples” (Maxcyte, Inc., priority 2001, dated 2007).

One data set has as its system CLL-B cells. Nature of the data set: Caspase inhibitor effect on human CD40L transfection of CLL-B cells. The data set is classed as cell-based. The note with it: 100 μm inhibitor in culture medium, 24 hour post transfection. As to the method:
Caspase inhibitor effect on human CD40L transfection of CLL-B cells was investigated. CLL-B cells (1.4×10^8 cells/mL) were electroporated by four 400 μs pulses at indicated electric fields in the present of DNA plasmid (200 μg/mL) coding for hCD40L. Following a 20 minute incubation at 37° C., cells were cultured in medium either with (+I) or without (−I) caspase inhibitor (Boc-Asp-FMK, 100 μm). hCD40L, expression was analyzed 24 hour post transfection by flow cytometry with antibodies against hCD40L conjugate-labeled with Cychrome.

Data set [1] deals with Human platelets. Nature of the data set: Loading of platelets with fluorescent marker by flow electroporation. The format is cell-based. As to the method:
Efficacy is expressed as the percentage of cells that took up fluorescent markers (calcein or albumin+fluorescein). “Activity” was determined by measuring biologic functions, such as secretion or aggregation (for MaxCyte's application, any detectable level will probably suffice). “Survival” is the circulating half-life in an animal model. FIGS. 23A and 23B show scatter plots from a flow cytometer. Control (FIG. 23A) was incubated in a dilute solution of the fluorescent dye, calcein, for approximately 1 hour. The test sample (FIG. 23B) was suspended in the same dye solution, but was run through the electroporation device. Similar results were obtained using fluoresceinated albumin.

For data set [2], the system named is Human platelets. Put plainly: Activity (secretion or aggregation) of loaded platelets. The format is cell-based. As for the experimental part:
Efficacy is expressed as the percentage of cells that took up fluorescent markers (calcein or albumin+fluorescein). “Activity” was determined by measuring biologic functions, such as secretion or aggregation (for MaxCyte's application, any detectable level will probably suffice). “Survival” is the circulating half-life in an animal model.

The test system of the next data set is platelets. Nature of the data set: Collagen stimulation of calcein-loaded platelets. The data set is classed as cell-based. The note with it: platelets electroporated with calcein, collagen stimulus. As to the method:
Platelets were treated in accordance with the present invention in the presence of a marker dye, calcein, then stimulated with increasing doses of collagen, a physiologic stimulant for platelets. […] FIGS. 24A and 24B show platelets that had been washed but otherwise not treated (Untreated[N]}), platelets that were incubated with the fluorescent marker calcein (calcein control) and platelets electroporated with calcein (electroporated) were subsequently stimulated with the physiologic stimulus, collagen.

The nature of data set [3]: Organ distribution of calcein-loaded platelets. The note with it: rabbits, organs harvested within 1 half-life. The data set is classed as in vivo, rabbit. An excerpt: In another series of studies, platelets loaded with calcein were infused into the rabbits and major organs harvested within 1 half-life.
The target in the next data set is hemoglobin (Homo sapiens, UniProt P68871). The note with it: cited from earlier work.
Another data set concerns resting Lymphocytes. Nature of the data set: Electroporation (transfection) of resting lymphocytes. Conditions: Static. The format is cell-based, human. As for the experimental part: Primary lymphocytes were suspended in B&K buffer (125 mM KCl, 15 mM NaCl, 1.2 mM MgCl2, 3 mM glucose, 25 mM Hepes, pH 7.4) cell concentration was set from 1×10^7 cells/mL to 6×10^8 cells/mL together with DNA plasmid from 50 μg/mL to 1 mg/mL. DNA concentration was 50 ug/mL–1000 ug/mL. Electroporation was performed at 2.3 kV/cm, 400 μs, 4 pulses for small volume experiments (15 μl) or 2.2 kV/cm, 1.6 ms, 1 pulse for large volume experiments (0.5 ml–2 ml) was performed under static conditions at room temperature. […] Cells were cultured in culture medium for various periods (up to 72 hours) and the transfection efficiency was analyzed.
Seven transgenes (Ds-Red, eGFP, βGal, hEndostatin, HEPO, hIFNα, hIL-2) were tested in these experiments. […] When pCMV-Ds-Red or pCMV-EGFP was used, the percentage of the fluorescent cells was counted, by FACS or by manual counting under phase contrast and fluorescence microscope, as the transfection efficiency. […] When pCMV-Endostatin was used, the Endostatin concentration in the supernatant was analyzed by ELISA kit from Cytimmune Sciences, Inc. (College Park, Md.). For pCMV-EPO electroporation, the erythropoietin concentration in the supernatant was analyzed by R&D ELISA kit (Minneapolis, Minn.). […]

Sequence of hemoglobin (P68871 2-147 limits assumed): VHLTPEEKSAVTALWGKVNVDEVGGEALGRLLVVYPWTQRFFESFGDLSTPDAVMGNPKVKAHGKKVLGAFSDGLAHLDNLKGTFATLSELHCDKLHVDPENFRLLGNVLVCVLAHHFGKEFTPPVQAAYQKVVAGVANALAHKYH
Sequence of hemoglobin (P69905 2-142 partner limits assumed): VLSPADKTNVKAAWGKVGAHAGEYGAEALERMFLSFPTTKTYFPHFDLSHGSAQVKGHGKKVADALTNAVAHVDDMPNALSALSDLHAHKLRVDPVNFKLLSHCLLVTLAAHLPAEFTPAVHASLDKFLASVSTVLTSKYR

`CC(C)(C)OC(=O)NC(CC(=O)O)C(=O)CF` (stereo not drawn) [Boc-Asp-FMK]: in the data set with CLL-B cells, the hCD40L expression level result was “improves” and the “hCD40L expression: percentage of expressed cells” value is “improves”.

Regarding `O=C(O)CN(CC(=O)O)Cc1cc2c(cc1O)Oc1cc(O)c(CN(CC(=O)O)CC(=O)O)cc1C21OC(=O)c2ccccc21` [CALCEIN, calcein], in the data set on Human platelets [1], the “Efficacy (% of cells with marker)” value is on record as 80+ % of cells with marker. The “Activity (% of control)” value in the data set on Human platelets [2] is on record as 40–60 % of control. Also, in the data set with platelets, the “collagen-stimulated Calcein release” value is on record as “did not release the dye”. Moreover, the “organ distribution of loaded platelets” value in data set [3] is “found in multiple organs”.

`O=P(O)(O)O[C@H]1[C@H](OP(=O)(O)O)[C@@H](OP(=O)(O)O)[C@H](OP(=O)(O)O)[C@@H](OP(=O)(O)O)[C@H]1OP(=O)(O)O` [IHP, inositol hexaphosphate]: the “affinity to hemoglobin relative to DPG” value at hemoglobin (higher than DPG) was 1000 fold. The P50 of hemoglobin on hemoglobin (pH 7.4, 37° C.) is on record as ≤ 96.4 mm Hg.

βGal: in the data set with resting Lymphocytes, the “Efficiency (% of + cells)” value stood at 15% and the Viability was 40%.
